The target in one experiment is T1, RECON (mRECON) (Mus musculus, UniProt Q8VC28).
T1 sequence (Q8VC28 1-323): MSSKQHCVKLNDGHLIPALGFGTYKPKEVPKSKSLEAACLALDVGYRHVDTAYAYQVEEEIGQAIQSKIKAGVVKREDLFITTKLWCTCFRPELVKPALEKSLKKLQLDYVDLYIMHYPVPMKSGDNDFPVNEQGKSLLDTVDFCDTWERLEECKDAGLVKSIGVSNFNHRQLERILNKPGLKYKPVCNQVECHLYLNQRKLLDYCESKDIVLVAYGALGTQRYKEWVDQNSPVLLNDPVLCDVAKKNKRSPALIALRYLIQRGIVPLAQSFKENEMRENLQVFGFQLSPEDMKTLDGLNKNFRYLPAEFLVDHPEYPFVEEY
The experiment in a line: DRaCALA. The experiment is classed as binding.

The next experiment has as its target CnpB (Mycobacterium tuberculosis, UniProt P71615). Nature of the experiment: DRaCALA, serial dilutions of protein. Format: binding.

The Kd is the constant that tells how readily two partners part at equilibrium.

Sequence of CnpB (P71615 whole entry): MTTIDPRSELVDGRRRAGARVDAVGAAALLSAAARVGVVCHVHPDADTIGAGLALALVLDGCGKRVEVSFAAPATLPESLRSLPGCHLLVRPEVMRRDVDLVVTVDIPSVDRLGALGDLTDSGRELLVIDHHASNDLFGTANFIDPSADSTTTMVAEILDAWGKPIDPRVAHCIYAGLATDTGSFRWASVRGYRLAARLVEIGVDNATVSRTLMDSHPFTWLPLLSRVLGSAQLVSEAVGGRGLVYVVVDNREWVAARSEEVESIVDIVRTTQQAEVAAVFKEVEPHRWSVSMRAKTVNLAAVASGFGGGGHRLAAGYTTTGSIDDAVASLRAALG

`Nc1ncnc2c1ncn2[C@@H]1O[C@@H]2COP(=O)(O)O[C@H]3[C@@H](O)[C@H](n4cnc5c(N)ncnc54)O[C@@H]3COP(=O)(O)O[C@H]2[C@H]1O` [3’3’-c-di-AMP]: the Kd on RECON (mRECON) was 68 nM; at CnpB, around 3000 nM.

The record behind these values is article PMC8715907 (Chembiochem : a European journal of chemical biology, 2020).
